From US5068325A, “4,5,7,8-tetrahydro-6H-thiazolo[5,4-d]azepines, their preparation and their use as pharmaceutical compositions” (priority 1988, dated 1991)

What was measured:
alpha-2 receptors = target: T1, alpha-2 receptors (Rattus norvegicus, UniProt P22909); experiment: affinity for alpha-2 receptors by displacement experiments with [3H]-clonidine (rat cortex membranes); type: binding; details: read-out: α2-IC50
T1 sequence (P22909 1-465): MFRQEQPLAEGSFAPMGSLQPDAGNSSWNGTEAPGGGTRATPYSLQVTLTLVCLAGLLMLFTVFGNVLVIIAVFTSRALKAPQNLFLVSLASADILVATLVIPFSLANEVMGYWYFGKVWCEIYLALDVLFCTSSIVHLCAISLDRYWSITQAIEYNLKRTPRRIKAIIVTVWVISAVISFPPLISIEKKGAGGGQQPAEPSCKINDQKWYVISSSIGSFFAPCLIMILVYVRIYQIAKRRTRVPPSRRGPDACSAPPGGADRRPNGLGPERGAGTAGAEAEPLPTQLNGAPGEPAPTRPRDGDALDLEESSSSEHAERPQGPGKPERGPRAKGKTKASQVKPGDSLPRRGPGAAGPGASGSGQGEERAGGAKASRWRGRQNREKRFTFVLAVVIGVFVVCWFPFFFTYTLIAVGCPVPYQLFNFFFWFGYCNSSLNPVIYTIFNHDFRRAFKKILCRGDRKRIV
Method: Determination of the affinity for alpha-2 receptors by displacement experiments with [^3 H] clonidine (Modified Method of B. Jarrott, W. J. Louis and R. J. Summers, Biochem. Pharmacol. 27, 141 (1979))
A male rat (Chbb:Thom strain weighing about 200 g) was killed by a blow to the back of the neck. The brain was removed and the cortex dissected out, weighed and homogenised in 25 volumes of tris buffer (50 mM tris- HCl, pH 7.50) for 30 seconds in an Ultra-Turrax at maximum speed, followed by 10° Cycles in a Potter- Elvehjem at 1400 rpm. The homogenised material was combined with tris buffer to obtain a homogenate dilution of 1:50 (based on the weight of the cortex).
1 ml aliquots of the membrane preparation were incubated for three hours at ambient temperature with 1 ml of a solution of 1 nM of [^3 H]-clonidine (2.2 TBq/mmol, Messrs. DuPont NEN) and with increasing concentrations of the test substance (10^-11 to 10^-4 M). Incubation was ended by the addition of 5 ml of ice-cold tris buffer and filtration through Whatman GF/B filters. The filters were washed twice, each time with 5 ml of ice cold buffer. The radioactivity of the filters was determined by liquid scintillation measurement in Instagel(R) (Messrs. Canberra Packard). The non-specific binding was determined in the presence of 10^-5 M of oxymetazoline (Sigma Chemical Co.).

MPTP monkeys = experiment: post-synaptic dopaminergic activity in MPTP monkeys; type: in vivo, rhesus monkey
Source text: 6. Determining the post-synaptic dopaminergic activity in MPTP monkeys (Modified Method of R. S. Burns et al., Proc. Natl. Acad. Sci. 80. 4546 (1983))
The neurotoxin 1-methyl-4-phenyl-1,2,3,6- tetrahydro-pyridine (MPTP) produces in humans and monkeys an irreversible syndrome which in its clinical, pathological, biochemical and pharmacological appearance is very similar to idiopathic Parkinson's disease (Markey et al., Nature 311, 464 (1984)). The reason for this similarity is that MPTP selectively destroys those dopaminergic nerve cells in the substantia nigra of the brain which are also lost by degenerative processes in Parkinson's disease. There is even some discussion that MPTP or an MPTP-like substance might be formed in the body and trigger Parkinson's disease (S. H. Snyder, Nature 311, 514 (1984)). Possibly because of the specific MPTP metabolism, the clinical formation of the MPTP-induced Parkinson syndrome has hitherto been detected only in humans and monkeys. The MPTP model produced in the rhesus monkey is therefore exceptionally suitable for testing the activity of post-synaptically acting dopamine agonists. For this purpose, rhesus monkeys were given MPTP in overall doses of up to about 6 mg/kg of body weight, until the following symptoms appeared: The animals were akinetic and unable to take water and food.
It is clear that with the compounds according to the invention there is no sedative effect or ataxia at a dosage which is several times the MED, which can be put down to the absence of a corresponding activity mediated by the α2- receptors.

dopamine D2-receptors = dopamine D2-receptors (Rattus norvegicus, UniProt P61169); experiment: affinity for dopamine D2-receptors by displacement experiments with [3H]-spiperone (rat striatum membranes); type: binding
Method: 1Determining the affinity for dopamine D2-receptors by displacement experiments with [^3 H]-spiperone (Modified Method of W. Billard et al., Life Sci. 35, 1885 (1984) and D. J. de Vries and P. M. Beart, Eur. J. Pharmacol. 109, 417 (1985))
Male rats (of the Chbb:Thom strain weighing about 200 g) were killed by a blow to the back of the neck. The brains were removed and dissected on ice. The striata were dissected out, weighed and homogenised in 25 volumes of tris buffer (50 mM tris-HCl, 1 mM EDTA, 5 mM MgCl2 and 1 mM ascorbic acid) for 30 seconds in an Ultra-Turrax at maximum speed, followed by 10 cycles in a Potter-Elvehjem at 1400 rpm. The pellet obtained after centrifuging at 50,000×g at 4° C. for 15 minutes was again taken up in 25 ml of tris buffer and centrifuged under the above conditions. The supernatant was discarded and the pellet obtained was incubated in 25 ml of tris buffer at 37° C. for 30 minutes and then centrifuged again at 50,000×g at 4° C. for 15 minutes. Finally, the pellet obtained was mixed with tris buffer to obtain a homogenate dilution of 1:500 (based on the weight of the striata).
1 ml aliquots of the membrane preparation were incubated with 1 ml of a solution of 0.25 nM [^3 H]-spiperone ([…], Messrs. DuPont NEN) and at increasing concentrations of the test substance (10^-11 to 10^-4 M) at ambient temperature for one hour. Incubation was ended by the addition of 5 ml of ice cold tris buffer and filtration using Whatman GF/B filters. The filters were washed twice, each time with 5 ml of ice cold buffer. The radioactivity of the filters was determined by liquid scintillation measurement in Instagel^(R) (Messrs. Canberra Packard). Non-specific binding was determined in the presence of 10^-5 M haloperidol (Sigma Chemical Co.).
Displacement curves were obtained from the data using the TOPFIT programming package (G. Heinzel in "Pharmacokinetics During Drug Development: Data Analysis and Evaluation Techniques", G. Bozler and J. M. van Rossum Eds., G. Fischer Verlag, Stuttgart 1982, 207).

[1] = test system: hypersensitive dopamine receptor; experiment: motility triggering in the mouse treated 24 hours earlier with reserpine; type: in vivo; details: Mus musculus, sc; reserpine-treated mice, s.c.; read-out: DLi50 (dosage resulting in 50 running pulses every 5 minutes)
Method: This test determines predominantly agonistic effects on the hypersensitive dopamine receptor.
Male mice are treated 24 hours before the experiment with 5 mg/kg i.p. reserpine. The animals are kept at 25°-30° C. and treated three times with 2 ml of a 5% glucose solution in tyrode s.c. (the first time when the reserpine is given, the second time in the evening of the pre-treatment day and the third time on the morning of the test day).
[…] (The injection volume is usually 0.1 ml/10 g of body weight). 30 minutes later the groups of animals are placed in the observation cages (measuring 42 x 24 x 8 cm) and fitted with an infrared lightbeam in order to measure their activity. The value measured is the frequency with which a group of 6 mice pass through the infra-red beam within 5 minutes ("running pulses/5 minutes"; mean at n=3; mean±s.e.m. at n=6).
3 to 6 groups are tested for each substance.

Chain of dopamine D2-receptors (P61169 whole entry): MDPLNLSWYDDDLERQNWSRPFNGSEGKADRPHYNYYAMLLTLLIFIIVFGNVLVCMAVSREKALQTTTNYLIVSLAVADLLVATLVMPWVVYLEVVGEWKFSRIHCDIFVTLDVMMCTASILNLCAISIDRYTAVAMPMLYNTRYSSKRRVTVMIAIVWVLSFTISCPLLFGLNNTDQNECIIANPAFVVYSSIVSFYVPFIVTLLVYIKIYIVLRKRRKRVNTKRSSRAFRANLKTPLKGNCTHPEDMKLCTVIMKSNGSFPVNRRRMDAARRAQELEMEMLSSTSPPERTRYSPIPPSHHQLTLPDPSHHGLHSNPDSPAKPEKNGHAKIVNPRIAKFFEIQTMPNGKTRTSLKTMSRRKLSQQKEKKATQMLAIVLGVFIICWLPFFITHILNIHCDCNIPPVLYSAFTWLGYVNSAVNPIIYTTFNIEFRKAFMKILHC

Row | Structure (SMILES) | IC50 (alpha-2 receptors) | Duration of activity (MPTP monkeys; 0.05 mg/kg i.m. (MED)) | Side effects (MPTP monkeys; 0.05 mg/kg i.m. (MED)) | Duration of activity (MPTP monkeys; 3.00 mg/kg i.m.) | minimal effective dose (MPTP monkeys; Primates, in Macaca mulatta, im, rhesus monkeys, i.m., read-out: minimum dose (MED) required to alleviate the Parkinson's symptoms) | Ki (dopamine D2-receptors; [3H]-spiperone, high-affinity form of the dopamine receptor) | α2-IC50 / D2-Ki (dopamine D2-receptors; relative affinity for dopamine-D2 receptors compared with α2-adrenoceptors, the higher, the higher the D2/α2 selectivity) | ED (50 running pulses/5 min) [1]
1 | Nc1nc2c(s1)CCN(CC=Cc1ccccn1)CC2 [Example 11a, 2-Amino-6-(3-(2-pyridyl)allyl)-4,5,7,8-tetrahydro-6H-thiazolo[5,4-d]azepin] | 760 nM | 1.5 to 2 h | none | 5 h | 0.05 mg/kg | 4.3 nM | 176 | 0.35 mg/kg
2 | Nc1nc2c(s1)CCN(CC=Cc1ccsc1)CC2 [Example 4a, 2-Amino-6-(3-(3-thienyl)allyl)-4,5,7,8-tetrahydro-6H-thiazolo[5,4-d]azepin] | – | – | – | – | – | – | – | 1.85 mg/kg
